Data: US8247211B2, “Glycopeptide antibiotics” (American Cyanamid Company, priority 2001, dated 2012)
≈ marks a conversion by molar mass, not a printed value.

What was measured:
Enterococcus sp. = assay: In vitro antibacterial evaluation: minimum inhibitory concentration (MIC), broth dilution method; type: cell-based; conditions: 18 hours at 35° C.
Procedure, shortened: (§1)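 MIC read as lowest drug level preventing visible growth. Organisms at 5×10^5 CFU/mL were exposed to a 64-0.06 μg/mL dilution series in Muller-Hinton II […] following NCCLS broth dilution standard M7-A2.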

Escherichia coli = assay: as above; type: cell-based; conditions: Escherichia coli (GC 4560); 18 hours at 35° C.
Procedure, shortened: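 NCCLS M7-A2 broth dilution with Mueller-Hinton II, testing 64-0.06 μg/mL antibiotic against 5×10^5 CFU/mL inocula. Test strains include recent methicillin-, penicillin- or vancomycin-resistant clinical isolates. MIC is the lowest concentration preventing growth.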

Staphylococcus sp. = assay: as above; type: cell-based; conditions: 18 hours at 35° C.
Procedure, shortened: as §1

Streptococcus sp. = assay: as above; type: cell-based; conditions: 18 hours at 35° C.
Procedure, shortened: as §1

[1] = system: Staphylococcus aureus-SMITH (GC 4543); assay: Acute lethal infection in mice (ED50); type: in vivo; conditions: female CD-1 mice, intraperitoneal challenge, intravenous dose 30 min. after infection, 7 day survival ratios
Description: The therapeutic effects of glycopeptide antibiotics of Formula I are determined against acute lethal infections with S. aureus (strain Smith), a penicillin resistant strain of S. pneumoniae (strain GC 1894), and a vancomycin resistant strain of E. fecalis (strain GC 6189 and GC 2246). Female mice, CD-1 (Charles River Laboratories), 20 +1-2 gm, are challenged by intraperitoneal injection of sufficient bacteria (suspended in Trypticase Soy Broth or hog gastric mucin) to kill non-treated controls within 24-48 hr. Antibacterial agents, contained in 0.2 mL of saline or 5% dextrose solution, are administered intravenously 30 min. after infection. Five mice are treated at each dose level. The 7 day survival ratios from 3 separate tests are pooled for calculation of median effective dose (ED50).

[2] = broth dilution, inoculum 5×10^5 CFU/mL

CCCOc1ccc(COCC2OC(OC3C(CO)OC(Oc4ccc(CC5NC(=O)C(C(C)c6ccccc6)NC(=O)CNC(=O)C(CO)NC(=O)C(C(O)C6CNC(=N)N6C6OC(CO)C(O)C(O)C6O)NC(=O)C(C(O)C6CNC(=N)N6)NC5=O)cc4)C(O)C3O)C(O)C(O)C2O)cc1 (stereo not drawn) [Example 235, Cyclo[glycyl-β-methylphenylalanyl-O-[4-O-[6-O-(4-propoxybenzyl)hexopyranosyl]hexopyranosyl]tyrosyl-3-(2-iminoimidazolidin-4-yl)seryl-3-(3-hexopyranosyl-2-iminoimidazolidin-4-yl)serylseryl]]
MIC Enterococcus avium (GC 4558) (Enterococcus sp.; Enterococcus avium (GC 4558)): 4 µg/mL (≈ 2.77 µM)
MIC Enterococcus faecalis (ATCC 29212) (Enterococcus sp.; Enterococcus faecalis (ATCC 29212)): 4 µg/mL (≈ 2.77 µM)
MIC Enterococcus faecalis (GC 2242) (Enterococcus sp.; Enterococcus faecalis (GC 2242)): 4 µg/mL (≈ 2.77 µM)
MIC Enterococcus faecalis (GC 2691) (Enterococcus sp.; Enterococcus faecalis (GC 2691)): 4 µg/mL (≈ 2.77 µM)
MIC Enterococcus faecalis (GC 3059) (Enterococcus sp.; Enterococcus faecalis (GC 3059)): 4 to 8 µg/mL
MIC Enterococcus faecalis (GC 4552) (Enterococcus sp.; Enterococcus faecalis (GC 4552)): 4 µg/mL (≈ 2.77 µM)
MIC Enterococcus faecalis (GC 4553) (Enterococcus sp.; Enterococcus faecalis (GC 4553)): 4 µg/mL (≈ 2.77 µM)
MIC Enterococcus faecalis (GC 4554) (Enterococcus sp.; Enterococcus faecalis (GC 4554)): 4 to 8 µg/mL
MIC Enterococcus faecalis (GC 6189) (Enterococcus sp.; Enterococcus faecalis (GC 6189)): 4 µg/mL (≈ 2.77 µM)
MIC Enterococcus faecium (GC 2243) (Enterococcus sp.; Enterococcus faecium (GC 2243)): 4 µg/mL (≈ 2.77 µM)
MIC Enterococcus faecium (GC 4556) (Enterococcus sp.; Enterococcus faecium (GC 4556)): 4 µg/mL (≈ 2.77 µM)
MIC Enterococcus faecium (GC 4557) (Enterococcus sp.; Enterococcus faecium (GC 4557)): 0.5 to 2 µg/mL
MIC Enterococcus faecalis (GC 2242) (Enterococcus sp.; [2]): 4 µg/mL (≈ 2.77 µM)
MIC Enterococcus faecalis (GC 2691) (Enterococcus sp.; [2]): 4 µg/mL (≈ 2.77 µM)
MIC Enterococcus faecalis (GC 3059) (Enterococcus sp.; [2]): 4 to 8 µg/mL
MIC Escherichia coli (GC 4560) (Escherichia coli): 0.5 to 1 µg/mL
MIC Coagulase Negative Staphylococcus (GC 4547) (Staphylococcus sp.; Coagulase Negative Staphylococcus (GC 4547)): 0.5 to 1 µg/mL
MIC Coagulase Negative Staphylococcus (GC 4551) (Staphylococcus sp.; Coagulase Negative Staphylococcus (GC 4551)): 0.5 to 1 µg/mL
MIC Staphylococcus aureus (ATCC 29213) (Staphylococcus sp.; Staphylococcus aureus (ATCC 29213)): 0.5 to 1 µg/mL
MIC Staphylococcus aureus (GC 1131) (Staphylococcus sp.; Staphylococcus aureus (GC 1131)): 1 to 2 µg/mL
MIC Staphylococcus aureus (GC 3051) (Staphylococcus sp.; Staphylococcus aureus (GC 3051)): 0.5 to 2 µg/mL
MIC Staphylococcus aureus (GC 3053) (Staphylococcus sp.; Staphylococcus aureus (GC 3053)): 1 to 2 µg/mL
MIC Staphylococcus aureus (GC 4541) (Staphylococcus sp.; Staphylococcus aureus (GC 4541)): 0.5 to 1 µg/mL
MIC Staphylococcus aureus (GC 4542) (Staphylococcus sp.; Staphylococcus aureus (GC 4542)): 0.5 to 2 µg/mL
MIC Staphylococcus aureus (GC 4544) (Staphylococcus sp.; Staphylococcus aureus (GC 4544)): 1 to 2 µg/mL
MIC Staphylococcus aureus (GC 4545) (Staphylococcus sp.; Staphylococcus aureus (GC 4545)): 1 to 2 µg/mL
MIC Staphylococcus aureus-SMITH (GC 4543) (Staphylococcus sp.; Staphylococcus aureus-SMITH (GC 4543)): 0.5 to 1 µg/mL
MIC Streptococcus pneumoniae (ATCC 6301) (Streptococcus sp.; Streptococcus pneumoniae (ATCC 6301)): 0.12 µg/mL (≈ 0.0831 µM)
MIC Streptococcus pneumoniae (GC 1894) (Streptococcus sp.; Streptococcus pneumoniae (GC 1894)): <0.06 µg/mL
MIC Streptococcus pyogenes (GC 4563) (Streptococcus sp.; Streptococcus pyogenes (GC 4563)): 0.25 µg/mL (≈ 0.173 µM)
MIC Streptococcus pneumoniae (ATCC 6301) (Streptococcus sp.; [2]): 0.12 µg/mL (≈ 0.0831 µM)
MIC Streptococcus pneumoniae (GC 1894) (Streptococcus sp.; [2]): <0.06 µg/mL
MIC Streptococcus pyogenes (GC 4563) (Streptococcus sp.; [2]): 0.25 µg/mL (≈ 0.173 µM)
median effective dose (ED50), Staphylococcus aureus-SMITH (GC 4543) [1]: 0.59 mg/kg
